The source of these data is patent publication EP0970046B1, “N-HYDROXY-2-(ALKYL, ARYL, OR HETEROARYL SULFANYL, SULFINYL OR SULFONYL)-3-SUBSTITUTED ALKYL, ARYL OR HETEROARYLAMIDES AS MATRIX METALLOPROTEINASE INHIBITORS” (Wyeth Holdings Corporation, priority 1997, dated 1998).

Format in all cases: biochemical
One experiment concerns the target MMP 13 (Homo sapiens, UniProt P45452). The experiment is described as follows: MMP 13 inhibition (IC50 / manual assay; method not described). The note with it: for IC50: read-out: MMP 13 IC 50.
The target of the next experiment is T1, MMP 1 (Homo sapiens, UniProt P03956).
T1 construct: human recombinant fibroblast collagenase (truncated, mw= 18,828, WAR, Radnor)
T1 sequence (P03956 100-269 limits assumed): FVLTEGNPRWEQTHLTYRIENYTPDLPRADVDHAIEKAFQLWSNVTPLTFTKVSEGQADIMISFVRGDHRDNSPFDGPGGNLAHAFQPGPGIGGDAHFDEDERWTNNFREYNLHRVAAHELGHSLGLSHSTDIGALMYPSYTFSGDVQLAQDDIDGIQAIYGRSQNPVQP
The experiment is described as follows: In Vitro Collagenase Assay. The procedure:
The assay is based on the cleavage of a peptide substrate ((Dnp-Pro-Cha-Gly-Cys(Me)-His-Ala-Lys(NMa)-NH2), Peptide International, Inc.) by collagenase releasing the fluorescent NMa group which is quantitated on the fluorometer. Dnp quenches the NMa fluorescence in the intact substrate. […] Substrate is dissolved in methanol and stored frozen in 1 mM aliquots. […] For the assay, substrate is dissolved in HCBC buffer to a final concentration of 10 µM and collagenase to a final concentration of 5 nM. Compounds are dissolved in methanol, DMSO, or HCBC. The methanol and DMSO are diluted in HCBC to < 1.0%. Compounds are added to the 96 well plate containing enzyme and the reaction is started by the addition of substrate.
The slope of the line is calculated and represents the reaction rate.
The linearity of the reaction rate is confirmed (r^2 >0.85). The mean (x ± sem) of the control rate is calculated and compared for statistical significance (p <0.05) with drug-treated rates using Dunnett's multiple comparison test.

A further experiment concerns the target T2, MMP 9 (Homo sapiens, UniProt P14780).
T2 construct: from tissue; host or cells: human neutrophils
Nature of the experiment: In Vitro Gelatinase Assay. The note with it: human neutrophil gelatinase B; for IC50: read-out: MMP 9 IC 50. The method, then: The assay is based on the cleavage of the thiopeptide substrate ((Ac-Pro-Leu-Gly(2 mercapto-4 methyl-pentanoyl)-Leu-Gly-OEt), Bachem Bioscience) by the enzyme, gelatinase, releasing the substrate product which reacts colorimetrically with DTNB ((5,5'-dithio-bis(2-nitro-benzoic acid)). The enzyme activity is measured by the rate of the color increase. The thiopeptide substrate is made up fresh as a 20 mM stock in 100% DMSO and the DTNB is dissolved in 100% DMSO as a 100 mM stock and stored in dark at room temperature. Both the substrate and DTNB are diluted together to 1 mM with substrate buffer (50 mM HEPES pH 7.5, 5 mM CaCl2) before use. […] The increase in OD405 is plotted and the slope of the line is calculated which represents the reaction rate. The linearity of the reaction rate is confirmed (r^2 >0.85). The mean (x ± sem) of the control rate is calculated and compared for statistical significance (p <0.05) with drug-treated rates using Dunnett's multiple comparison test.

The next experiment addresses T3, TACE (Homo sapiens, UniProt P78536).
T3 construct: purchased Immunex
Nature of the experiment: Procedure for Measuring TACE Inhibition. The note with it: for IC50: read-out: TACE IC 50; for inhibition at 1 µM: read-out: TACE % inhibition at 1 micromolar. The procedure, abridged: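 Single-concentration screen: test compound at 1 µM final, 10-min room-temperature preincubation with 1 µg/mL protease in Tris pH 7.4 buffer containing glycerol. Initial rate from linear fluorescence increase (340/420 nm) over 10 min after adding 100 µM peptidyl substrate; significance versus control rate by Dunnett's test.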

Where [1] appears, read: human recombinant fibroblast collagenase, read-out: MMP 1 IC 50.

Molecules are shown by their SMILES. Where two headings read alike, the source gives them in different places.

T2 sequence (P14780 94-707): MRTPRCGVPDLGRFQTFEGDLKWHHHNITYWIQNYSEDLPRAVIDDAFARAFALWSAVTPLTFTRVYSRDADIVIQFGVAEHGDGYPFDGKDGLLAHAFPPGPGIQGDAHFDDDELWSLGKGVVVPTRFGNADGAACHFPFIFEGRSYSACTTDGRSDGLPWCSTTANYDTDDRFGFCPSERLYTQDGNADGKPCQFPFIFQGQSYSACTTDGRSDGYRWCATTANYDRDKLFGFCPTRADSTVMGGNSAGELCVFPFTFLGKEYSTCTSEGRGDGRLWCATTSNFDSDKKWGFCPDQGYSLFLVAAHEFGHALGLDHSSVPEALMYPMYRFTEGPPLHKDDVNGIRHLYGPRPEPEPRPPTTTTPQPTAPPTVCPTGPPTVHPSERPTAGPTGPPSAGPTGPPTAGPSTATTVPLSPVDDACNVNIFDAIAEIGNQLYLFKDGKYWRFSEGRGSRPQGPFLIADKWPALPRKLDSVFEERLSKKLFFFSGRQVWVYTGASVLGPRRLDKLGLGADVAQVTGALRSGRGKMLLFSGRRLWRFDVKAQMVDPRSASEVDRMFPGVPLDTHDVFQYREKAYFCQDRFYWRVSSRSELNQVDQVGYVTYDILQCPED
T3 sequence (P78536 215-824): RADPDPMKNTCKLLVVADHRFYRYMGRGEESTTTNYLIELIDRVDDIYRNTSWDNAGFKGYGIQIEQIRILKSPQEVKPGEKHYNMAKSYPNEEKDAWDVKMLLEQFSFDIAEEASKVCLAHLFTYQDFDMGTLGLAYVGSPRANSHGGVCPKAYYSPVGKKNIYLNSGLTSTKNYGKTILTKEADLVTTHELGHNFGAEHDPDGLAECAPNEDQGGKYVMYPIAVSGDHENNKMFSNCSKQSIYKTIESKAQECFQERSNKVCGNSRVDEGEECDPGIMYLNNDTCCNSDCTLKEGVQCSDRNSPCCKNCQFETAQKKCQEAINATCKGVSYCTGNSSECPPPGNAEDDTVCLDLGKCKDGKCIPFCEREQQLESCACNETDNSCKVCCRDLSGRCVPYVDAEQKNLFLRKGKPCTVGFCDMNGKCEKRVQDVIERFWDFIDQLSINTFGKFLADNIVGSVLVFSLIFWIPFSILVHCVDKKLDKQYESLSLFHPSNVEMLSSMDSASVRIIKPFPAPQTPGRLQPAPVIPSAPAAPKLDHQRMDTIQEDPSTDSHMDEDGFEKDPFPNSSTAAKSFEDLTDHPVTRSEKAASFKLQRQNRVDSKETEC

Consider `COc1ccc(S(=O)(=O)C2(C(=O)NO)CCN(Cc3ccccc3)CC2)cc1` [Example 83, 1-Benzyl-4-(4-methoxy-benzenesulfonyl)-piperidine-4-carboxylic Acid hydroxyamide], for which the IC50 was determined as 2 nM at MMP 13, 492 nM on MMP 1 (setting [1]), 10.2 nM on MMP 9 and 229 nM at TACE.

Take `COc1ccc(S(=O)(=O)C2(C(=O)NO)CCN(Cc3ccc(OCCN4CCCCC4)cc3)CC2)cc1` [Example 109, 4-(4-Methoxy-benzenesulfonyl)-1-[4-(2-piperidin-1-yl-ethoxy)-benzyl]-piperidine-4-carboxylic acid hydroxyamide]: the IC50 at MMP 13 amounted to 2.5 nM; on MMP 1, 393 nM; at MMP 9, 2.7 nM; at TACE, 386 nM.

For the molecule `CCCCCCC(Sc1ccc(F)cc1)C(=O)NO` (stereo not shown) [Example 38, 2-(4-Fluoro-phenylsulfanyl)-octanoic acid hydroxyamide], the inhibition at 1 µM at MMP 13 (read-out: MMP 13 % inhibition at 1 micromolar) turned out to be 5.8%; at MMP 1 (read-out: MMP 1 % inhibition at 1 micromolar, 1 micromolar, human recombinant fibroblast collagenase) it was 48.3%; at MMP 9 (read-out: MMP 9 % inhibition at 1 micromolar, 1 micromolar), 1.7%; at TACE, 55.1%.

With `COc1ccc(S(=O)(=O)C2(C(=O)NO)CCN(Cc3cccc(OC)c3)CC2)cc1` [Example 84, 4-(4-methoxy-benzenesulfonyl)-1-(3-methoxy-benzyl)-piperidine-4-carboxylic acid hydroxyamide], the IC50 at MMP 13 is 2 nM; on MMP 1 (setting [1]) it was 519 nM; at MMP 9, 8.8 nM; at TACE it was 213 nM.

Regarding `CCCCCC#CCC(CC#CCCCCC)(C(=O)NO)S(=O)(=O)c1ccc(OC)cc1` [Example 71, 2-(4-methoxy-benzenesulfonyl)-2-oct-2-ynyl-dec-4-ynoic acid hydroxyamide], the IC50 worked out at 13 nM on MMP 13, 1000 nM at MMP 1 (setting [1]) and 63 nM on MMP 9. On TACE, the inhibition at 1 µM turned out to be 42.2%.

Turning to `COc1ccc(S(=O)(=O)C(C)(Cc2ccccc2Br)C(=O)NO)cc1` (stereo not shown) [Example 55, 3-(2-Bromo-phenyl)-N-hydroxy-2-(4-methoxy-benzenesulfonyl)-2-methyl-propionamide], the IC50 on MMP 13 is 7 nM; on MMP 1 (setting [1]) it was 303 nM; on MMP 9, 10 nM. For the same molecule, the inhibition at 1 µM at TACE amounted to 21.7%.

Take `COc1ccc(S(=O)(=O)C(Cc2cccnc2)(CC2CCCCC2)C(=O)NO)cc1` (stereo not shown) [Example 65, 3-Cyclohexyl-N-hydroxy-2-(4-methoxy-benzenesulfonyl)-2-pyridin-3-ylmethyl-propionamide]: the IC50 amounted to 13 nM on MMP 13, 1000 nM at MMP 1 (setting [1]) and 63 nM on MMP 9. At TACE, the inhibition at 1 µM was 42.2%.

As to `COc1ccc(S(=O)(=O)C(Cc2cccnc2)(CC(C)C)C(=O)NO)cc1` (stereo not shown) [Example 66, 2-(4-Methoxy-benzenesulfonyl)-4-methyl-2-pyridin-3-ylmethyl-pentanoic acid hydroxyamide], the IC50 on MMP 13 was 226 nM; at MMP 1 (setting [1]), 1600 nM; on MMP 9 it was 131 nM. The inhibition at 1 µM at TACE was found to be 42.3%.

Consider `CCN(CC)CCOc1cccc(CC(C)(C(=O)NO)S(=O)(=O)c2ccc(OC)cc2)c1` (stereo not shown) [Example 29, N-Hydroxy-2-(4-methoxy-benzenesulfonyl)-2-methyl-3-[3-(2-N,N-diethylamino-ethoxy)-phenyl]-propionamide], for which the IC50 on MMP 13 amounted to 3.6 nM; on MMP 1 (setting [1]), 297 nM; at MMP 9 it was 4.3 nM. On TACE (1 micromolar), the “TACE % inhibition at 1 micromolar” value is recorded as 41%.

`CCCCCC#CCC(Cc1cccnc1)(C(=O)NO)S(=O)(=O)c1ccc(OC)cc1` (stereo not shown) [Example 74, 2-(4-Methoxy-benzenesulfonyl)-2-pyridin-3-ylmethyl-dec-4-ynoic acid hydroxyamide]: the IC50 on MMP 13 amounted to 4.3 nM; at MMP 1 (setting [1]), 138 nM; at MMP 9, 9.2 nM. On TACE, the inhibition at 1 µM turned out to be 47.9%.
